Measured values published in ChEMBL document CHEMBL1133844, “2-Benzyl-3,4-iminobutanoic acid as inhibitor of carboxypeptidase A” (Bioorg Med Chem Lett, 2001).

Experiment: The compound was tested for the inhibition of Carboxypeptidase A

| SMILES | Ki [µM] |
| --- | --- |
| O=C(O)C(Cc1ccccc1)c1c[nH]cn1 (racemic) | 0.8 |
| O=C(O)[C@H](Cc1ccccc1)[C@H]1CN1 (single isomer, unassigned) | 230 |
| O=C(O)[C@H](Cc1ccccc1)C1CC1 | 803 |
| O=C(O)[C@@H](Cc1ccccc1)[C@H]1CN1 | 120 |
| O=C(O)C(Cc1ccccc1)C1CC1 (racemic) | 792 |
| O=C(O)[C@@H](Cc1ccccc1)C1CC1 | 646 |
| O=C(O)[C@@H](Cc1ccccc1)[C@@H]1CN1 (single isomer, unassigned) | 510 |
| O=C(O)[C@H](Cc1ccccc1)[C@@H]1CN1 | 35 |
